In patent US20040142958A1, “Combination therapy for the treatment of pain” (Neurogen Corporation, priority 2002, published 2004):

Columns and labels:
[1] = tested on: rats; test: Carrageenan-induced thermal hyperalgesia, VR1 antagonist and morphine in combination; type: in vivo, rat
Procedure: Briefly, a constant radiant heat source is applied the animals' plantar surface of either hind paw. The time to withdrawal (ie., the amount of time that heat is applied before the animal moves its paw), otherwise described as thermal threshold or latency, determines the animal's hind paw sensitivity to heat.
Rats received oral administration of 0.1 mg/kg VR1 antagonist ([2-(2,6-dimethyl-morpholin-4-ylmethyl)-7-(3-trifluoromethyl-pyridin-2-yl)-pyrido[3,2-d]pyrimidin-4-yl]-(4-trifluoromethyl-phenyl)-amine (cis)) or vehicle alone in a solution of 2% vitamin E (d-alpha tocopheryl polyethylene glycol 1000 succinate) in distilled water. One hour later, 100 μL of 1% carrageenan was injected in the intraplantar aspect of the left paw. 2 hours after carrageenan injection, the rats were treated subcutaneously with saline or 1 mg/kg of morphine sulfate in saline. One hour after subcutaneous treatment, each rat's thermal withdrawal latency (i.e., the amount of time that heat is applied before the animal moves its paw) was determined. This latency was compared with the latency determined for each rat on the day prior to the experiment (baseline day).
The data are presented in FIG. 4, expressed as a decrease in paw withdrawal latency (latency on test day—latency on baseline day).

[2] = tested on: rats; test: CFA-induced chronic inflammatory pain, mechanical allodynia (von Frey), tolerance to morphine; type: in vivo, rat; details: once per day for four days; for withdrawal threshold from a von Frey filament: Treatment Day 4, 1 hour after treatment, ANOVA and Fisher's PLSD
Text: A positive allodynic response consists of lifting the affected paw followed immediately by licking or shaking of the paw.

[3] = oral VR1 antagonist 0.3 mg/kg and subcutaneous morphine sulfate 3 mg/kg

| Compound | decrease in thermal paw withdrawal latency (carrageenan-induced thermal hyperalgesia) ([1]; VR1 antagonist alone, 0.1 mg/kg oral, with s.c. saline, ANOVA, Fisher's PLSD) | decrease in thermal paw withdrawal latency (carrageenan-induced thermal hyperalgesia) ([1]; coadministration of 1 mg/kg morphine s.c. with VR1 antagonist 0.1 mg/kg oral) | tolerance to repeated morphine dosing [2, 3] | withdrawal threshold from a von Frey filament [2, 3] | decrease in thermal paw withdrawal latency (carrageenan-induced thermal hyperalgesia) ([1]; 1 mg/kg morphine s.c. with oral vehicle, 1 hour after subcutaneous treatment, ANOVA, Fisher's PLSD) | withdrawal threshold from a von Frey filament ([2]; oral vehicle and subcutaneous morphine sulfate 3 mg/kg) |
| --- | --- | --- | --- | --- | --- | --- |
| C[C@@H]1CN(Cc2nc(Nc3ccc(C(F)(F)F)cc3)c3ncc(-c4ncccc4C(F)(F)F)cc3n2)C[C@H](C)O1 [VR1 antagonist, [2-(2,6-dimethyl-morpholin-4-ylmethyl)-7-(3-trifluoromethyl-pyridin-2-yl)-pyrido[3,2-d]pyrimidin-4-yl]-(4-trifluoromethyl-phenyl)-amine (cis)] | statistically significant effect | greatest effect | prevents tolerance to repeated morphine dosing | statistically significantly higher withdrawal thresholds than any other treatment group |  |  |
| CN1CC[C@]23c4c5ccc(O)c4O[C@H]2[C@@H](O)C=C[C@H]3[C@H]1C5 [morphine, reference compound] |  |  |  |  | ineffective in reversing carrageenan-induced thermal hyperalgesia | not significantly different from oral vehicle and subcutaneous vehicle controls |
